Columns and labels:
[1] = system: T47D; assay: Anticancer activity against human T47D cells assessed as inhibition of tumor cell proliferation after 48 hrs by MTT assay; assay type: functional, cell-based
[2] = system: MCF7; assay: Anticancer activity against human MCF7 cells assessed as inhibition of tumor cell proliferation after 48 hrs by MTT assay; assay type: functional, cell-based; conditions: MCF7, 48 h
[3] = system: HeLa; assay: Anticancer activity against human HeLa cells assessed as inhibition of tumor cell proliferation after 48 hrs by MTT assay; assay type: functional, cell-based
[4] = target: T1, Tyrosine-protein phosphatase non-receptor type 1 (Homo sapiens, UniProt P18031); assay: Inhibition of PTP-1B (unknown origin) using pNPP substrate measured after 30 mins
T1 sequence (P18031 whole entry): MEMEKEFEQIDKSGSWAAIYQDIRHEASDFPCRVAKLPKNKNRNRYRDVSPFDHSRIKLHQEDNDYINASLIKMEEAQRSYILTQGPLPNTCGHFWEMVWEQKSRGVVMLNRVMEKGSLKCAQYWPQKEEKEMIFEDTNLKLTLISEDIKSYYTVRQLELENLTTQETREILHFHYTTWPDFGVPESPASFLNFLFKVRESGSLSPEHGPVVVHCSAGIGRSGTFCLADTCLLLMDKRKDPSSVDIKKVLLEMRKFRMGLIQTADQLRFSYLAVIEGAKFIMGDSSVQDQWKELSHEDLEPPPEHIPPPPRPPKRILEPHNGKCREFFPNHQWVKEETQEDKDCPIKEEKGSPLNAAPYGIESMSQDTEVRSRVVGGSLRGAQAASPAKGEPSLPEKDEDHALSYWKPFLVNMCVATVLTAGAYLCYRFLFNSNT

[5] = system: Ishikawa; assay: Anticancer activity against human Ishikawa cells assessed as inhibition of tumor cell proliferation after 48 hrs by MTT assay; assay type: functional, cell-based
[6] = system: Staphylococcus aureus; assay: Antimicrobial activity against Staphylococcus aureus ATCC 6538 assessed as inhibition zone after 24 hrs by agar well diffusion method; assay type: functional; also: test concentration or dose not given here
[7] = system: Escherichia coli; assay: Antimicrobial activity against Escherichia coli ATCC 11229 assessed as inhibition zone after 24 hrs by agar well diffusion method; assay type: functional; also: test concentration or dose not given here
[8] = system: Candida albicans; assay: Antimicrobial activity against Candida albicans ATCC 10231 assessed as inhibition zone after 24 hrs by agar well diffusion method; assay type: functional; also: test concentration or dose not given here

IC50 [1] [µM] | IC50 [2] [µM] | IC50 [3] [µM] | IC50 [4] | IC50 ([4]; read-out: IC50) [µM] | SMILES | IC50 [5] [µM] | diameter of the inhibition zone (DIZ) [6] [mm] | diameter of the inhibition zone (DIZ) [7] [mm] | diameter of the inhibition zone (DIZ) [8] [mm]
11.6 | 18.6 | 40.3 | Not Active | – | CCOC(=O)c1c(N)sc(N)c1C(=O)OCC | 46.9 | 10 | <5.5 | <5.5
30.3 | 6.1 | 31.2 | Not Active | – | CCOC(=O)c1c(N)sc(/N=C/c2ccccc2)c1C(=O)OCC | 37.9 | 9 | <5.5 | 8
2.3 | 1.3 | 14.1 | – | 6.43 | CCOC(=O)c1c(N)sc(/N=C/c2ccc([N+](=O)[O-])cc2)c1C(=O)OCC | 141 | 8.5 | <5.5 | <5.5
12.1 | 6.8 | 25.2 | Not Active | – | CCOC(=O)c1c(N)sc(/N=C/c2ccc(Cl)cc2)c1C(=O)OCC | 27.1 | <5.5 | <5.5 | <5.5
22.5 | 22.5 | 30.8 | Not Active | – | CCOC(=O)c1c(N)sc(/N=C/c2ccc(F)cc2)c1C(=O)OCC | 32.1 | 10 | <5.5 | 8
13.2 | 12.5 | 25.9 | – | 6.54 | CCOC(=O)c1c(N)sc(/N=C/c2ccc(Br)cc2)c1C(=O)OCC | 46.1 | <5.5 | <5.5 | <5.5
31.9 | 16.2 | 189 | Not Active | – | CCOC(=O)c1c(N)sc(/N=C/c2ccc(OC)cc2)c1C(=O)OCC | 108 | 9 | <5.5 | 9
37.2 | 8.9 | 41.9 | Not Active | – | CCOC(=O)c1c(N)sc(/N=C/c2ccc(C)cc2)c1C(=O)OCC | 52.5 | 10 | <5.5 | 8
16.7 | 5.7 | 131 | – | 7.32 | CCOC(=O)c1c(N)sc(/N=C/c2ccc(N(C)C)cc2)c1C(=O)OCC | 73 | 11.5 | <5.5 | 8
14.9 | 62.2 | 46.7 | Not Active | – | CCOC(=O)c1c(N)sc(/N=C/c2ccco2)c1C(=O)OCC | 69.3 | 10.5 | <5.5 | <5.5
16 | 2.4 | 4.7 | – | 7.12 | CCOC(=O)c1c(N)sc(/N=C/c2ccc([N+](=O)[O-])o2)c1C(=O)OCC | 7.6 | 22 | 16 | >22
7.1 | 26.1 | 21.3 | – | 14.8 | CCOC(=O)c1c(N)sc(/N=C/c2cccs2)c1C(=O)OCC | 39.8 | 10 | <5.5 | <5.5
8.6 | 92.2 | 35.4 | Not Active | – | CCOC(=O)c1c(N)sc(/N=C/c2ccncc2)c1C(=O)OCC | 119 | <5.5 | <5.5 | 7
– | – | – | – | – | C[C@@H]1[C@H](O)[C@@H](C)/C=C/C=C/C=C/C=C/C=C/C=C/C=C/[C@H](O[C@@H]2O[C@H](C)[C@@H](O)[C@H](N)[C@@H]2O)C[C@@H]2O[C@](O)(C[C@@H](O)C[C@@H](O)[C@H](O)CC[C@@H](O)C[C@@H](O)CC(=O)O[C@H]1C)C[C@H](O)[C@H]2C(=O)O [AMPHOTERICIN B] | – | 15 | – | –
– | – | – | – | – | CC1(C)S[C@@H]2[C@H](NC(=O)[C@H](N)c3ccccc3)C(=O)N2[C@H]1C(=O)O [AMPICILLIN] | – | – | 19 | 14
15.5 | 6.75 | 7.04 | – | – | COc1cccc2c1C(=O)c1c(O)c3c(c(O)c1C2=O)C[C@@](O)(C(=O)CO)C[C@@H]3O[C@H]1C[C@H](N)[C@H](O)[C@H](C)O1 [DOXORUBICIN] | 9.02 | – | – | –

From ChEMBL document CHEMBL3352002, “Discovery of diethyl 2,5-diaminothiophene-3,4-dicarboxylate derivatives as potent anticancer and antimicrobial agents and screening of anti-diabetic activity: synthesis and in vitro biological evaluation. Part 1” (Eur J Med Chem, 2014)
